target: T1, purified human HDAC6 (Homo sapiens, UniProt Q9UBN7); experiment: HDAC6 Enzyme Assay; type: biochemical; conditions: HDAC6 inhibition at a compound concentration of 0.412 μM; read-out: Percent Inhibition at 0.412 μM
T1 construct: purchased BPS Bioscience 5006
T1 sequence (Q9UBN7 1-1215): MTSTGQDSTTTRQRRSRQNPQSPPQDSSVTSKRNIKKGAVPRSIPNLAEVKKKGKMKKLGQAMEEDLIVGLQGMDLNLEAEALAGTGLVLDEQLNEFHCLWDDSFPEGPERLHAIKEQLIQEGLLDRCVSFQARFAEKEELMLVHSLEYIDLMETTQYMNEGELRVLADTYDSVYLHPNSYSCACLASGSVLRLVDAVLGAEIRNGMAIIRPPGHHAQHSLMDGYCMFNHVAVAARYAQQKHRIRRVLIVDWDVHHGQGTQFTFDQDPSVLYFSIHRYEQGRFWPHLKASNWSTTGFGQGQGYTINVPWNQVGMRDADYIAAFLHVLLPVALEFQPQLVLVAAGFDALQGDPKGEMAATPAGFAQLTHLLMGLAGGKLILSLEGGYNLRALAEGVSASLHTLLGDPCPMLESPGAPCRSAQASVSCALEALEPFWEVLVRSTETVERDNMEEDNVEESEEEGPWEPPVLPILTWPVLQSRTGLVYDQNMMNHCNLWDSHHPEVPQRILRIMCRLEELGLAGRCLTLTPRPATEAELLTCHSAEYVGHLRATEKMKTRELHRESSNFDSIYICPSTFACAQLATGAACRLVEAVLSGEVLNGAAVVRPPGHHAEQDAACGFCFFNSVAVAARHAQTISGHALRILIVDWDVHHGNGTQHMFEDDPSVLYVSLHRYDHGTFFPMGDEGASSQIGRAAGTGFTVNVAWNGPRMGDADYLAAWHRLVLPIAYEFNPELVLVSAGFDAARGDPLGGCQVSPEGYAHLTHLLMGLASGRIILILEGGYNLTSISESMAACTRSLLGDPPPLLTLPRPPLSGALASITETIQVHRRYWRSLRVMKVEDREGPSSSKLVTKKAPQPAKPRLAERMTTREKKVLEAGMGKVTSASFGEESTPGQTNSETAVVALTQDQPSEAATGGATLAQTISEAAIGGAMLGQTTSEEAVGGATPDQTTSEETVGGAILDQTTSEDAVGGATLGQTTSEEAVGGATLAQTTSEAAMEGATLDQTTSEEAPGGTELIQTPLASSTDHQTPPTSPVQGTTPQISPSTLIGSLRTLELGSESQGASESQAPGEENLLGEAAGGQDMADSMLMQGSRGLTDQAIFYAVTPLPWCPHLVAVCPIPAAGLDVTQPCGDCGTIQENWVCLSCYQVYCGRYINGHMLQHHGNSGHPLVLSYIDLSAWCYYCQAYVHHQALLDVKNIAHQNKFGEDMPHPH
Description: To measure the inhibition of HDAC6 activity, purified human HDAC6 (BPS Bioscience; Cat. No. 5006) is incubated with substrate Ac-Arg-Gly-Lys(Ac)-AMC peptide (Bachem Biosciences; Cat. No. I-1925) for 1 hour at 30° C. in the presence of test compounds or vehicle DMSO control. The reaction is stopped with the HDAC inhibitor trichostatin A (Sigma; Cat. No. T8552) and the amount of Arg-Gly-Lys-AMC generated is quantitated by digestion with trypsin (Sigma; Cat. No. T1426) and subsequent measurement of the amount of AMC released using a fluorescent plate reader (Pherastar; BMG Technologies) set at Ex 340 nm and Em 460 nm. Concentration response curves are generated by calculating the fluorescence increase in test compound-treated samples relative to DMSO-treated controls, and enzyme inhibition (IC50) values are determined from those curves.

Row | inhibition at 0.412 µM [%] | Structure (SMILES)
1 | 34 | O=C(Cc1c(F)cccc1F)NC1CCCc2cc(C(=O)NO)ccc21 (stereo not shown) [Compound I-1, 5-{[(2,6-difluorophenyl)acetyl]amino}-N-hydroxy-5,6,7,8-tetrahydronaphthalene-2-carboxamide]
2 | 35 | CCc1cc(C(=O)NC2CCCc3cc(C(=O)NO)ccc32)n(C)n1 (stereo not shown) [Compound I-2, 3-ethyl-N-{6-[(hydroxyamino)carbonyl]-1,2,3,4-tetrahydronaphthalen-1-yl}-1-methyl-1H-pyrazole-5-carboxamide]
3 | 36 | O=C(NO)c1ccc2c(c1)CCCC2NC(=O)c1ccsc1 (stereo not shown) [Compound I-3, N-{6-[(hydroxyamino)carbonyl]-1,2,3,4-tetrahydronaphthalen-1-yl}thiophene-3-carboxamide]
4 | 11 | CC(C)(C)CC(=O)NC1CCCc2cc(C(=O)NO)ccc21 (stereo not shown) [Compound I-5, 5-[(3,3-dimethylbutanoyl)amino]-N-hydroxy-5,6,7,8-tetrahydronaphthalene-2-carboxamide]
5 | 18 | CC(C)(C)C(=O)NC1CCCc2cc(C(=O)NO)ccc21 (stereo not shown) [Compound I-6, 5-[(2,2-dimethylpropanoyl)amino]-N-hydroxy-5,6,7,8-tetrahydronaphthalene-2-carboxamide]
6 | 22 | Cc1nc(C(F)(F)F)c(C(=O)NC2CCCc3cc(C(=O)NO)ccc32)s1 (stereo not shown) [Compound I-7, N-{6-[(hydroxyamino)carbonyl]-1,2,3,4-tetrahydronaphthalen-1-yl}-2-methyl-4-(trifluoromethyl)-1,3-thiazole-5-carboxamide]
7 | 33 | O=C(NO)c1ccc2c(c1)CCCC2NC(=O)c1cccc(C(F)(F)F)c1 (stereo not shown) [Compound I-8, N-hydroxy-5-{[3-(trifluoromethyl)benzoyl]amino}-5,6,7,8-tetrahydronaphthalene-2-carboxamide]
8 | 47 | O=C(NO)c1ccc2c(c1)CCCC2NC(=O)c1cnc2ccccc2n1 (stereo not shown) [Compound I-9, N-{6-[(hydroxyamino)carbonyl]-1,2,3,4-tetrahydronaphthalen-1-yl}quinoxaline-2-carboxamide]
9 | 20 | O=C(Cc1ccc(C(F)(F)F)cc1)NC1CCCc2cc(C(=O)NO)ccc21 (stereo not shown) [Compound I-10, N-hydroxy-5-({[4-(trifluoromethyl)phenyl]acetyl}amino)-5,6,7,8-tetrahydronaphthalene-2-carboxamide]
10 | 21 | Cc1cc(C)n(CC(=O)NC2CCCc3cc(C(=O)NO)ccc32)n1 (stereo not shown) [Compound I-11, 5-{[(3,5-dimethyl-1H-pyrazol-1-yl)acetyl]amino}-N-hydroxy-5,6,7,8-tetrahydronaphthalene-2-carboxamide]
11 | 15 | O=C(NO)c1ccc2c(c1)CCCC2NC(=O)c1cc(C(F)(F)F)cc(C(F)(F)F)c1 (stereo not shown) [Compound I-12, 5-{[3,5-bis(trifluoromethyl)benzoyl]amino}-N-hydroxy-5,6,7,8-tetrahydronaphthalene-2-carboxamide]
12 | 10 | O=C(NO)c1ccc2c(c1)CCCC2NC(=O)C(C1CCCCC1)C1CCCCC1 (stereo not shown) [Compound I-13, 5-[(dicyclohexylacetyl)amino]-N-hydroxy-5,6,7,8-tetrahydronaphthalene-2-carboxamide]
13 | 79 | CC(C)(Oc1ccccc1Cl)C(=O)NC1CCCc2cc(C(=O)NO)ccc21 (stereo not shown) [Compound I-14, 5-{[2-(2-chlorophenoxy)-2-methylpropanoyl]amino}-N-hydroxy-5,6,7,8-tetrahydronaphthalene-2-carboxamide]
14 | 11 | CCC(C)(C)C(=O)NC1CCCc2cc(C(=O)NO)ccc21 (stereo not shown) [Compound I-15, 5-[(2,2-dimethylbutanoyl)amino]-N-hydroxy-5,6,7,8-tetrahydronaphthalene-2-carboxamide]
15 | 55 | CC(C)(C)c1ccc(C(=O)NC2CCCc3cc(C(=O)NO)ccc32)cc1 (stereo not shown) [Compound I-16, 5-[(4-tert-butylbenzoyl)amino]-N-hydroxy-5,6,7,8-tetrahydronaphthalene-2-carboxamide]
16 | 19 | O=C(NO)c1ccc2c(c1)CCCC2NC(=O)C1CCCCC1 (stereo not shown) [Compound I-17, 5-[(cyclohexylcarbonyl)amino]-N-hydroxy-5,6,7,8-tetrahydronaphthalene-2-carboxamide]
17 | 34 | Cn1cccc1C(=O)NC1CCCc2cc(C(=O)NO)ccc21 (stereo not shown) [Compound I-18, N-{6-[(hydroxyamino)carbonyl]-1,2,3,4-tetrahydronaphthalen-1-yl}-1-methyl-1H-pyrrole-2-carboxamide]
18 | 20 | Cc1cc(C(=O)NC2CCCc3cc(C(=O)NO)ccc32)n(C(C)(C)C)n1 (stereo not shown) [Compound I-19, 1-tert-butyl-N-{6-[(hydroxyamino)carbonyl]-1,2,3,4-tetrahydronaphthalen-1-yl}-3-methyl-1H-pyrazole-5-carboxamide]
19 | 30 | O=C(NO)c1ccc2c(c1)CCCC2NC(=O)c1ccc(C(F)(F)F)cc1 (stereo not shown) [Compound I-20, N-hydroxy-5-{[4-(trifluoromethyl)benzoyl]amino}-5,6,7,8-tetrahydronaphthalene-2-carboxamide]
20 | 20 | O=C(NO)c1ccc2c(c1)CCCC2NC(=O)C12CC3CC(CC(C3)C1)C2 (stereo not shown) [Compound I-21, N-{6-[(hydroxyamino)carbonyl]-1,2,3,4-tetrahydronaphthalen-1-yl}adamantane-1-carboxamide]
21 | 28 | Cc1oc(S(=O)(=O)N2CCCC2)cc1C(=O)NC1CCCc2cc(C(=O)NO)ccc21 (stereo not shown) [Compound I-22, N-{6-[(hydroxyamino)carbonyl]-1,2,3,4-tetrahydronaphthalen-1-yl}-2-methyl-5-(pyrrolidin-1-ylsulfonyl)-3-furamide]
22 | 46 | O=C(NO)c1ccc2c(c1)CCCC2NC(=O)c1cc2ccccc2s1 (stereo not shown) [Compound I-24, N-{6-[(hydroxyamino)carbonyl]-1,2,3,4-tetrahydronaphthalen-1-yl}-1-benzothiophene-2-carboxamide]
23 | 21 | O=C(CC1C[C@@H]2CC[C@H]1C2)NC1CCCc2cc(C(=O)NO)ccc21 (stereo partly drawn) [Compound I-26, 5-{[(1S,4R)-bicyclo[2.2.1]hept-2-ylacetyl]amino}-N-hydroxy-5,6,7,8-tetrahydronaphthalene-2-carboxamide]
24 | 11 | CC(=O)N/C(=C\c1ccccc1)C(=O)NC1CCCc2cc(C(=O)NO)ccc21 (stereo not shown) [Compound I-27, 5-{[(2Z)-2-(acetylamino)-3-phenylprop-2-enoyl]amino}-N-hydroxy-5,6,7,8-tetrahydronaphthalene-2-carboxamide]
25 | -2 | O=C(NO)c1ccc2c(c1)CCCC2NC(=O)c1ccc2ncsc2c1 (stereo not shown) [Compound I-28, N-{6-[(hydroxyamino)carbonyl]-1,2,3,4-tetrahydronaphthalen-1-yl}-1,3-benzothiazole-6-carboxamide]
26 | 70 | O=C(NO)c1ccc2c(c1)CCCC2NC(=O)c1cn2cc(Cl)ccc2n1 (stereo not shown) [Compound I-29, 6-chloro-N-{6-[(hydroxyamino)carbonyl]-1,2,3,4-tetrahydronaphthalen-1-yl}imidazo[1,2-a]pyridine-2-carboxamide]
27 | 17 | CC(C)C(C(=O)NC1CCCc2cc(C(=O)NO)ccc21)c1ccccc1 (stereo not shown) [Compound I-31, N-hydroxy-5-[(3-methyl-2-phenylbutanoyl)amino]-5,6,7,8-tetrahydronaphthalene-2-carboxamide]
28 | 69 | O=C(NO)c1ccc2c(c1)CCCC2NC(=O)c1sc2ccccc2c1Cl (stereo not shown) [Compound I-32, 3-chloro-N-{6-[(hydroxyamino)carbonyl]-1,2,3,4-tetrahydronaphthalen-1-yl}-1-benzothiophene-2-carboxamide]

Reference: patent publication US20140243335A1, “SUBSTITUTED HYDOXAMIC ACIDS AND USES THEREOF” (Millennium Pharmaceuticals, Inc., priority 2010, published 2014)
